Entries after “also recorded” stand apart in the source; their conditions may differ. Each block holds one compound with its values, some of them ahead of it. Bridge positions count the residues as written; N and C are the ends. Square brackets hold non-standard residues; d marks the D form. Ends that are not written are not given here. Peptide text beside a SMILES is read from it. pGlu = O=C1CC[C@@H](C(=O)O)N1
Assays:
[1] = target: full-length recombinant human Tyrosyl-DNA phosphodiesterase 1 (TDP1) (human) (UniProt Q9NUW8); assay: cell-based or functional assay
Chain of full-length recombinant human Tyrosyl-DNA phosphodiesterase 1 (TDP1) (human) (Q9NUW8 whole entry): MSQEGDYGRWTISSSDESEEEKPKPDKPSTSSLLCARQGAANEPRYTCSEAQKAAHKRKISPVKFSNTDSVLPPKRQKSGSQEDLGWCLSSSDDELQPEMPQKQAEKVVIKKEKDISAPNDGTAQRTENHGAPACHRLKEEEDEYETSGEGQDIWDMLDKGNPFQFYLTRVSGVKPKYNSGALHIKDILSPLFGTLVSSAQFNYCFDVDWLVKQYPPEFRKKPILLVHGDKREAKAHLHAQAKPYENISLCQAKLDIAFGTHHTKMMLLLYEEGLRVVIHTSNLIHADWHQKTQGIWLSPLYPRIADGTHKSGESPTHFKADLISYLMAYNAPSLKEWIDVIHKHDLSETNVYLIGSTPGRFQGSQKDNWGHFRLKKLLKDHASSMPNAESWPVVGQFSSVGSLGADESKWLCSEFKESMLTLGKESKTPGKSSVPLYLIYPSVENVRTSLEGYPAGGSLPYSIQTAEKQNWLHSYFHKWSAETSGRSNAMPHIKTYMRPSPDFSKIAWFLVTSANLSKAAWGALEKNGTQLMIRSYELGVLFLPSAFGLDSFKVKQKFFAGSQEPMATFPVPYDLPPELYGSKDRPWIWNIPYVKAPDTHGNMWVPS

[2] = test system: T1, recifin A (native, isolated from the marine sponge Axinella sp.)
T1 sequence: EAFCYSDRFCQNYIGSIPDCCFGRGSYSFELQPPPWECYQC

FL-TDP1 = target: T2, FL-TDP1 (Homo sapiens, UniProt Q9NUW8); assay: FL-TDP1 FRET assay without TCEP (recifin A and analogues); assay type: biochemical; settings: for TDP1 inhibitory activity (FRET assay): TCEP omitted; for IC50: IC50 μM (FL-TDP1 inhibitory activity), 1 nM FL-TDP1, 0.25 μM substrate, T=15 min, 1XPBS pH 7.4, 80 mM KCl, -TCEP, high-test concentration 20 μM
T2 construct: either full-length TDP1 or Δ1-147TDP1 was diluted to 1×
T2 sequence (Q9NUW8 whole entry): as the sequence (Q9NUW8 whole entry) above
Experimental: For these FRET assays, TCEP was omitted from the reaction buffer. Peptides were evaluated for FL-TDP1 inhibitory activity using an 8-pt, 10^0.5 dilution series at a high-test concentration of 20 μM. RXN conditions: 1 nM FL-TDP1, 0.25 μM substrate, T=15 min.; rxn buffer (1XPBS pH 7.4, 80 mM KCl) (-TCEP). See FIGS. 21A and 21B and FIG. 22.

[3] = target: T3, human TDP1 complemented DT40 knockout whole cell extracts (hTDP1 WCE) (Homo sapiens, UniProt Q9NUW8); assay: TDP1 inhibition assay with radiolabeled oligonucleotide in whole cell extract; assay type: biochemical; settings: 2 μg/mL hTDP1 WCE from TDP1-/- DT40 cells complemented with human TDP1
T3 construct: expressed in transfected cells; host or cells: TDP1-/- DT40 (chicken B-lymphocyte) cells complemented with human TDP1; whole cell extract
T3 sequence (Q9NUW8 whole entry): as the sequence (Q9NUW8 whole entry) above
Experimental: (§3) The reactions were carried out in a final volume of 10 μL in 1×LMP 1 reaction buffer (50 mM Tris-HCl, pH 7.5, 80 mM KCl, 2 mM EDTA, 1 mM DTT, 40 μg/mL BSA, 0.01% TWEEN 20) at room temperature for 15 minutes and terminated by adding 10 μ−L of 2×stop buffer (99.5% formamide, 10 mM EDTA, 0.01% methylene blue, 0.01% bromophenol blue).

chymotrypsin = chymotrypsin (Bos taurus, UniProt P00766); settings: native form, 1:20 enzyme to target protein by mass, overnight at room temperature
carboxypeptidase Y = carboxypeptidase Y (Saccharomyces cerevisiae, UniProt P00729); settings: native form, 1:18 enzyme to target protein by mass, 20 minutes at room temperature
Chain of carboxypeptidase Y (P00729 112-532, species assumed): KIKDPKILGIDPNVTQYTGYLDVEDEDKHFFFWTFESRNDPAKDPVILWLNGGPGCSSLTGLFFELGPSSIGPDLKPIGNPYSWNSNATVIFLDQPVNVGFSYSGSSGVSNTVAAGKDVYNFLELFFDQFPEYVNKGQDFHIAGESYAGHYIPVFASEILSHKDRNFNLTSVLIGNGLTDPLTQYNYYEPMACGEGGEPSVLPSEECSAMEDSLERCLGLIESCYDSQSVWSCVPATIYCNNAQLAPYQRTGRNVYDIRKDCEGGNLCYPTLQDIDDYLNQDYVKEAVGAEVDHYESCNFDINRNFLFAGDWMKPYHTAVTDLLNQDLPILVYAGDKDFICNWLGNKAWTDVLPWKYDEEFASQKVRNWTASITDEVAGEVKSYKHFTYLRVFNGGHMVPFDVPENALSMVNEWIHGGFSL

TDP1 = TDP1 (Homo sapiens, UniProt Q9NUW8); assay: High-throughput biochemical assay for inhibition of TDP1 enzymatic activity (bioassay-guided fractionation); settings: comparison among peptide constituents of fractions A-D of Axinella sp. aqueous extract
Chain of TDP1 (Q9NUW8 whole entry): as the sequence (Q9NUW8 whole entry) above
Experimental: The sponge Axinella sp., (Voucher #ID 0CDN7410, NSC #C020686) was harvested at a depth of 40 m at the Thunderbolt reef, south-southwest of Cape Recife Nature Reserve, Port Elizabeth, South Africa. A voucher specimen for this collection is maintained at the Smithsonian Institution (Suitland, MD). Aqueous extracts of Axinella sp. were provided by the Natural Products Branch of the National Cancer Institute and were prepared as previously reported (McCloud, Molecules, 15(7): 4526-63 (2010)). The dried extract was reconstituted in water at a concentration of 10 mg/mL and then subjected to vacuum-assisted chromatography using Bakerbond C4 wide-pore media (Mallinckrodt Baker, Inc., Phillipsburg, NJ). Compounds were eluted using a stepwise methanol gradient of five column volumes (CV) each of 100% water, 40% methanol, 60% methanol and 100% methanol, and the resulting fractions were evaporated under vacuum and then lyophilized to dryness. A high-throughput biochemical assay for inhibition of TDP1 enzymatic activity was utilized to track fraction activity (Bermingham, et al., SLAS Discov., 2472555217717200 (2017)). […]

[4] = Stability of recifin A to handling, solvents and RP-HPLC
full-length TDP1 [5] = target: T4, full-length TDP1 (Homo sapiens, UniProt Q9NUW8); assay: biochemical
T4 sequence (Q9NUW8 whole entry): as above
Experimental: as §3

full-length TDP1 [6] = target: T4, full-length TDP1; assay: FRET-based TDP1 enzymatic activity inhibition assay, full-length TDP1 (1x TDP1 buffer with TCEP); assay type: biochemical; parameters: either full-length TDP1 or Δ1-147TDP1 was diluted to 1×; settings: for effect on Vmax of full-length TDP1 / effect on Km of full-length TDP1: steady-state analysis; for effect on Km of full-length TDP1: sub-micromolar concentrations of recifin A
Experimental: (§1) FRET-based TDP1 enzymatic activity inhibition assays were carried out as previously described (Bermingham, et al., SLAS Discov., 2472555217717200 (2017)). Briefly, for Michaelis-Menten analysis, an eight-point FRET substrate concentration response was used (from 0.01-3 μM substrate) in the presence of 0, 0.2, 0.5, 1, and 2 μM recifin A. Quadruplicate reactions were setup in which a 1.25× concentration of either full-length TDP1 or Δ1-147TDP1 was diluted to 1× by the addition of a […] solution of substrate and recifin A to reach a final concentration of 0.5 nM TDP1 (full length or truncated) and the indicated substrate and recifin A concentration in 1× Phosphate Buffered Saline (PBS) pH 7.4, 80 mM potassium chloride, 1 mM TCEP, referred to as “1× TDP1 buffer.” After dilution these reactions were transferred to a black small volume 384-well plate (Greiner Bio-One, Monroe, NC). Fluorescence measurements (excitation: 520 nm, emission: 550 nm) were taken at 30 sec intervals for 1 h using a i3x SpectraMax plate reader (Molecular Devices, Sunnyvale, CA). Reaction progression curves for each condition were examined for linearity over the time course and the reaction rate for each condition was determined by linear regression using GraphPad Prism software (version 8.3.1, San Diego, CA). Reaction rates were replotted in terms of substrate concentration, and kinetic parameters for each recifin A treatment concentration were calculated by non-linear regression (GraphPad Prism) according to the following equation: […]
(§2) For IC50 determinations, a 12-point concentration response curve was prepared over a recifin A concentration range of 0-15 μM. This was accomplished by diluting a 5X stock solution of recifin A and TDP1 FRET substrate into a stock solution of 1.25× TDP1 buffer containing 0.625 nM full-length TDP1 or Δ147TDP1, bringing the final concentration to 1× TDP1 buffer, 0.5 nM enzyme (or a no enzyme control), 1 μM FRET substrate, and 0-15 μM recifin A. Reactions were setup in triplicate using the same plates and plate reader described above for the kinetic measurements. Reaction wells were read at 0 (T0) and 15 (T15) min after initiation. The T15 data was background corrected by subtracting T0 fluorescence measurements. Corrected data was normalized to a control with no enzyme present (0% activity) and a vehicle control (100% activity). Recifin A concentrations were converted to logio-values and normalized data were fitted to the following equation by nonlinear regression (least squares fit with a variable slope) and an IC50 value was calculated using GraphPad Prism software: […]

[7] = target: pyroglutamate aminopeptidase (Pyrococcus furiosus, UniProt O73944)
Chain of pyroglutamate aminopeptidase (O73944 whole entry): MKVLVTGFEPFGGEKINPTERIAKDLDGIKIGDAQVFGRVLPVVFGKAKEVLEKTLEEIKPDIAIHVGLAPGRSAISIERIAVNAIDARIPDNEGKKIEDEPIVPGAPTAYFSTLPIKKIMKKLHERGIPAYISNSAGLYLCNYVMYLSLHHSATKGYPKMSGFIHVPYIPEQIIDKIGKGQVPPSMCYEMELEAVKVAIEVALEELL

trypsin = trypsin (Bos taurus, UniProt P00760); settings: native form, 1:20 enzyme to target protein by mass, overnight at 37° C.
Chain of trypsin (P00760 24-246): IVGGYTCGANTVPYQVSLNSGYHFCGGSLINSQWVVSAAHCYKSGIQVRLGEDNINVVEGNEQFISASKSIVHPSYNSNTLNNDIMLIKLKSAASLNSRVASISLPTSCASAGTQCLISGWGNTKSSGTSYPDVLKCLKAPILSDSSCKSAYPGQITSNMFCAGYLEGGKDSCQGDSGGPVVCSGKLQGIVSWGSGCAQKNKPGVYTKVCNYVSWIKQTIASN

Δ147TDP1 = target: T5, Δ147TDP1 (Homo sapiens, UniProt Q9NUW8); assay: FRET-based TDP1 enzymatic activity inhibition assay, N-terminally truncated TDP1; assay type: biochemical
T5 construct: a truncated catalytic domain of TDP1 lacking the N-terminal regulatory domain (Δ1-147)
T5 sequence (Q9NUW8 148-608, stated change not applied): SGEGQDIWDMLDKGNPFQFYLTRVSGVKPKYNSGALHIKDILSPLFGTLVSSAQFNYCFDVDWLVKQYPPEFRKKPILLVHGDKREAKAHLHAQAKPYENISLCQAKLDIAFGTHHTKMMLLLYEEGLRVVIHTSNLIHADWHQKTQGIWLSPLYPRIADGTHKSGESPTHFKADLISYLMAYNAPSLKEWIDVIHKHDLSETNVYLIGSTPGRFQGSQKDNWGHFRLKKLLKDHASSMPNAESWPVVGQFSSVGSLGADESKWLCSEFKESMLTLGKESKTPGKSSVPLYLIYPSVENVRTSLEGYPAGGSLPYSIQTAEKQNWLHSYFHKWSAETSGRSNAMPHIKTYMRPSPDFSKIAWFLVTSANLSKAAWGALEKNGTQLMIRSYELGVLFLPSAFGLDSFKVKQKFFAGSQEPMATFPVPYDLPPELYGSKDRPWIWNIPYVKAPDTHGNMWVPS
Experimental: as §1, §2

[8] = target: N-terminal truncated TDP1 (Δ147TDP1) (UniProt Q9NUW8); assay: cell-based or functional assay
Chain of N-terminal truncated TDP1 (Δ147TDP1) (Q9NUW8 148-608, stated change not applied): as above

[9] = full-length TDP1, Michaelis-Menten analysis, 0-2 μM recifin A

Compound: N-terminal truncated TDP1 (Δ147TDP1)
Km and Vmax of the Δ147TDP1 FRET assay [2]: recifin A had overlapping 95% confidence intervals for both Km and Vmax with the untreated controls, indicating that recifin A does not affect the enzymatic activity of truncated TDP1

Compound: [pGlu]EAFCYSDRFCQNYIGSIPDCCFGRGSYSFELQPPPWECYQC-OH (disulfide 5-21, 11-39, 22-42) [Synthetic, Recifin]
TDP1 inhibitory activity (FRET assay) (FL-TDP1): have TDP1 inhibitory activity | IC50 (FL-TDP1): 0.5 µM

Compound: [pGlu]EAFCYSDRFCQNYIGSIPDCCFGRGSYSFELQPPPWECYQC (disulfide 5-21, 11-39, 22-42) [recifin A]
inhibition of TDP1 processing of the radiolabeled oligonucleotide in whole-cell extract [3]: retained the ability to inhibit | digestion with chymotrypsin (chymotrypsin): resistant | digestion with carboxypeptidase Y (carboxypeptidase Y): resistant | TDP1 inhibitory activity of Axinella sp. peptides/fractions (TDP1): most active | activity after processing ([4]; DTP extract preparation, drying under nitrogen gas at room temperature, freezing at -20° C., -80° C. and on dry ice, lyophilization, freezing and thawing): still active | stability during RP-HPLC procedures ([4]; room temperature and 40° C., with and without 0.05% v/v TFA (pH approx. 2)): stable | stability in solvents and buffers ([4]; water, PBS pH 7.4, Tris HCl pH 8.0, methanol, acetonitrile, DMSO): stable | IC50 (full-length TDP1 [5]): 2.4 µM | IC50 (full-length TDP1 [6]): 0.19 µM | increase in Km for the substrate (full-length TDP1 [6]; [9]): approximately 6 fold | increase in observed Vmax (full-length TDP1 [6]; [9]): approximately 1.6 fold | effect on Vmax of full-length TDP1 (full-length TDP1 [6]): modest increase | effect on Km of full-length TDP1 (full-length TDP1 [6]): increased | effect on Km of full-length TDP1 (full-length TDP1 [6]; listed as Recifin A): in-creased | effect on Vmax of full-length TDP1 (full-length TDP1 [6]; listed as Recifin A): in-creased | IC50 (FL-TDP1): 1.63 µM | digestion with pyroglutamate aminopeptidase ([7]; native form, 2 microgram peptide to 0.2 milliunits enzyme, PBS pH 7.4, 24 hour at 37 C): resistant | digestion with pyroglutamate aminopeptidase: N-terminal pyroglutamate residue ([7]; same conditions in phosphate buffer containing 10 mM DTT): fully removed | digestion with trypsin (trypsin): resistant | effect on enzymatic activity of truncated TDP1 (Δ147TDP1) (Δ147TDP1; FRET assay, TDP1 lacking N-terminal regulatory domain (Δ1-147)): does not affect the enzymatic activity; also recorded: not affecting the activity | inhibition at 1.5 µM (Δ147TDP1; at the highest concentration (1500 nM), read-out: maximal inhibition of Δ147TDP1): ~20% | effect on Km of Δ147TDP1 (Δ147TDP1; Δ147TDP1 FRET assay): did not affect | effect on Vmax of Δ147TDP1 (Δ147TDP1; Δ147TDP1 FRET assay): did not affect

Compound: CC[C@H](C)[C@@H]1NC(=O)[C@H](Cc2ccc(O)cc2)NC(=O)[C@H](CC(N)=O)NC(=O)[C@H](CCC(N)=O)NC(=O)[C@@H]2CSSC[C@@H]3NC(=O)[C@H](CCC(=O)O)NC(=O)[C@H](Cc4c[nH]c5ccccc45)NC(=O)[C@@H]4CCCN4C(=O)[C@@H]4CCCN4C(=O)[C@@H]4CCCN4C(=O)[C@H](CCC(N)=O)NC(=O)[C@H](CC(C)C)NC(=O)[C@H](CCC(=O)O)NC(=O)[C@H](Cc4ccccc4)NC(=O)[C@H](CO)NC(=O)[C@H](Cc4ccc(O)cc4)NC(=O)[C@H](CO)NC(=O)CNC(=O)[C@H](CCCNC(=N)N)NC(=O)CNC(=O)[C@H](Cc4ccccc4)NC(=O)[C@H](CSSC[C@@H](C(=O)O)NC(=O)[C@H](CCC(N)=O)NC(=O)[C@H](Cc4ccc(O)cc4)NC3=O)NC(=O)[C@H](CSSC[C@H](NC(=O)[C@H](Cc3ccccc3)NC(=O)[C@H](C)N)C(=O)N[C@@H](Cc3ccc(O)cc3)C(=O)N[C@@H](CO)C(=O)N[C@@H](CC(=O)O)C(=O)N[C@@H](CCCNC(=N)N)C(=O)N[C@@H](Cc3ccccc3)C(=O)N2)NC(=O)[C@H](CC(=O)O)NC(=O)[C@@H]2CCCN2C(=O)[C@H]([C@@H](C)CC)NC(=O)[C@H](CO)NC(=O)CNC1=O [Truncated, Recifin (3-42)] (H-AFCYSDRFCQNYIGSIPDCCFGRGSYSFELQPPPWECYQC-OH; disulfide 3-19, 9-37, 20-40)
TDP1 inhibitory activity (FRET assay) (FL-TDP1): no TDP1 inhibitory activity | IC50 (FL-TDP1): > 10 µM

Compound: full-length recombinant human Tyrosyl-DNA phosphodiesterase 1 (TDP1)
effect on the observed Vmax, FRET steady-state kinetics [2]: approximately 1.6-fold higher | recifin A-dependent increase in the Km for the substrate, FRET steady-state kinetics [2]: approximately 6-fold higher

Next, values leading:

IC50 µM, FL-TDP1 FRET inhibition assay without TCEP [1]: > 10 µM
Compound: Recifin (3-42) (peptide)

IC50 µM, FL-TDP1 FRET inhibition assay without TCEP [1]: > 10 µM
Compound: [Ala10] recifin (peptide)

IC50 µM, FL-TDP1 FRET inhibition assay without TCEP [1]: 0.69 µM
Compound: [Pro1] recifin (peptide)

IC50 µM, FL-TDP1 FRET inhibition assay without TCEP [1]: 1.63 µM | IC50, inhibition of TDP1 cleavage of a 5'-radiolabeled oligonucleotide DNA substrate containing a 3'-phosphotyrosyl residue (gel assay) [1]: 2.4 µM | apparent IC50, FRET-based TDP1 enzymatic activity inhibition assay [1]: 0.19 µM | maximal inhibition of enzymatic activity, FRET assay [8]: 20%
Compound: recifin A (native, isolated from the marine sponge Axinella sp.) (peptide)

IC50 µM, FL-TDP1 FRET inhibition assay without TCEP [1]: 0.5 µM
Compound: synthetic recifin A (peptide)
